Residues, ends and D or L forms follow the SMILES beside them. *: point of attachment. Cbz = O=C(OCc1ccccc1)*
Legend:
[1] = target: T1, bacterially expressed ERK7 (Rattus norvegicus, UniProt Q9Z2A6); assay: ERK7 kinase assay, phosphorylation of GST-MBPtide, HRP-ELISA; assay type: biochemical; conditions: purified ERK7 5 nM
T1 construct: HIS-tag; made in house; host or cells: bacteria
T1 sequence (Q9Z2A6 1-547): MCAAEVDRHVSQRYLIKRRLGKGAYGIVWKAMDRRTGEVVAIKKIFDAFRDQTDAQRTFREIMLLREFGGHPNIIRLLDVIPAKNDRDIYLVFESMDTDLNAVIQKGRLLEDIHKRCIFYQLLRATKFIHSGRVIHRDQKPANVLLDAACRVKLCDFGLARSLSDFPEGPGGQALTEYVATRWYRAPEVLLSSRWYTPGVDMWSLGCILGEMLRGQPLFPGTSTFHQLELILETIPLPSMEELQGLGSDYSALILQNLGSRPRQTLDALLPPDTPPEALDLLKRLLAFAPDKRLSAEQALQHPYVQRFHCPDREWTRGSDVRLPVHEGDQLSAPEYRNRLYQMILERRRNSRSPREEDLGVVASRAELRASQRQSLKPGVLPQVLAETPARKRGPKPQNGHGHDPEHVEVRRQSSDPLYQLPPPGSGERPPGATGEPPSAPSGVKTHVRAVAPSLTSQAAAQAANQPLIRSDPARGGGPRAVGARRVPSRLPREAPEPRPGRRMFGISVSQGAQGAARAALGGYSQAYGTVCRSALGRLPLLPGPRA
Procedure: FIG. 1: is a graph representing the determination of the KM of ATP for bacterially expressed ERK7. Purified ERK7 (5 nM) was incubated in the presence of increasing ATP concentrations. The concentration of ATP supporting maximal velocity of the kinase reaction is 1 mM. The concentration of ATP supporting half-maximal velocity (KM) is ˜100 μM. Background is the measured signal from reactions carried out in the presence of 200 mM EDTA, which eliminates kinase activity. The background has not been subtracted from the ERK7 signal. Phosphorylation of the immobilized GST-MBPtide was detected using the HRP-ELISA as described in Example 1.
Kinase assays were developed to measure the activity of rat ERK7 and human ERK8. Purified, recombinant ERK7 and ERK8 were obtained by introducing a HIS-tag in frame with the coding sequence of the kinases, expressing the proteins in bacteria and purifying the proteins over a NiNTA resin (Qiagen, Valencia, Calif.). […]
The kinase assays were performed in a 96 well format according to the following procedure. […] All assays measured the initial velocity of reaction. […] HRP activity was measured using Western Lightning Chemiluminescence Reagent (NEL102, PerkinElmer Life Sciences) according to manufacturer's protocol. Maximum and minimum activity is the relative luminescence detected in the presence of vehicle and 200 mM EDTA, respectively. […]

[2] = test system: ERα-regulated transcription; assay: ERE-luciferase transcriptional analysis in MCF-7 stable lines; assay type: cell-based, human
[3] = test system: ERα; assay: ERα protein levels by immunoblot in transfected BHK cells treated with proteasome inhibitor; assay type: cell-based, hamster; conditions: presence and absence of estradiol
Procedure: BHK cells were transfected in 10 mm dishes with calcium phosphate and 1 μg of wild type or mutant ERα or FLAG-IκBα or HA-SF1 or HA-AR construct, 5 μg of a construct encoding a wild type or mutant kinase or vector control. At 8 h post transfection, the cells were washed with phosphate-buffered saline (PBS) and placed in Dulbecco's modified Eagle's medium (DMEM) with 5% fetal calf serum (FCS).

[4] = test system: ERK7/8; conditions: cited from earlier work
[5] = test system: MAPK(ERK1/2); conditions: cells expressing MAPK(ERK1/2); cited from earlier work

## Nc1ncnc2c1ncn2[C@@H]1O[C@H](COP(=O)(O)OP(=O)(O)OP(=O)(O)O)[C@@H](O)[C@H]1O [ATP]
[1]
  concentration supporting maximal velocity of the kinase reaction: 1 mM
[1]; increasing ATP, read-out: KM (concentration supporting half-maximal velocity)
  Km: ~100 µM

## CC(C)C[C@@H](C=O)NC(=O)[C@H](CC(C)C)NC(=O)[C@H](CC(C)C)NC(=O)OCc1ccccc1 [MG132] (Cbz-Leu-Leu-Leu-aldehyde)
[2]; MCF-7 cells stably expressing K43A-ERK7, ERE-luciferase reporter
  effect on transcriptional response: not affected
[2]; MCF-7 control (vector) stable cells, ERE-luciferase reporter
  increase of transcriptional response to estradiol: ~3 fold
[3]
  effect on ERα protein levels: increased ERα protein levels

## C=C1[C@@H](O)[C@@H]2O[C@]3(CC[C@H](/C=C/[C@@H](C)[C@@H]4CC(C)=C[C@@]5(O[C@H](C[C@@](C)(O)C(=O)O)CC[C@H]5O)O4)O3)CC[C@H]2O[C@@H]1[C@@H](O)C[C@H](C)[C@H]1O[C@@]2(CCCCO2)CC[C@H]1C [okadaic acid]
[4]
  effect on ERK7/8 TEY phosphorylation: no effect
[5]
  effect on amount of TEY phosphorylated MAPK(ERK1/2): increases
